## Cc1ccc(S(=O)(=O)[N-]Cl)cc1.[Na+]
In ethanol, 278 K
  solubility (mole fraction): 0.02
In ethanol, 283 K
  solubility (mole fraction): 0.0221
In ethanol, 288 K
  solubility (mole fraction): 0.0244
In ethanol, 293 K
  solubility (mole fraction): 0.0268
In ethanol, 298 K
  solubility (mole fraction): 0.0299
In ethanol, 303.2 K
  solubility (mole fraction): 0.034
In ethanol, 308 K
  solubility (mole fraction): 0.0388
In ethanol, 313 K
  solubility (mole fraction): 0.0441
In ethanol, 318 K
  solubility (mole fraction): 0.0499
In ethanol, 323 K
  solubility (mole fraction): 0.0564
In n-propanol, 278 K
  solubility (mole fraction): 0.00503
In n-propanol, 283 K
  solubility (mole fraction): 0.00636
In n-propanol, 288 K
  solubility (mole fraction): 0.00776
In n-propanol, 293 K
  solubility (mole fraction): 0.00932
In n-propanol, 298 K
  solubility (mole fraction): 0.0109
In n-propanol, 303.1 K
  solubility (mole fraction): 0.013
In n-propanol, 308.2 K
  solubility (mole fraction): 0.0156
In n-propanol, 313 K
  solubility (mole fraction): 0.0191
In n-propanol, 318 K
  solubility (mole fraction): 0.0235
In n-propanol, 323 K
  solubility (mole fraction): 0.0291
In sec-butanol, 278 K
  solubility (mole fraction): 0.00101
In sec-butanol, 283 K
  solubility (mole fraction): 0.00135
In sec-butanol, 288 K
  solubility (mole fraction): 0.00201
In sec-butanol, 293 K
  solubility (mole fraction): 0.00322
In sec-butanol, 298.4 K
  solubility (mole fraction): 0.00464
In sec-butanol, 303.2 K
  solubility (mole fraction): 0.00595
In sec-butanol, 308 K
  solubility (mole fraction): 0.00723
In sec-butanol, 313 K
  solubility (mole fraction): 0.00881
In sec-butanol, 318 K
  solubility (mole fraction): 0.0114
In sec-butanol, 323 K
  solubility (mole fraction): 0.0141
In water, 278 K
  solubility (mole fraction): 0.00684
In water, 283 K
  solubility (mole fraction): 0.008
In water, 288 K
  solubility (mole fraction): 0.00955
In water, 293 K
  solubility (mole fraction): 0.0114
In water, 298 K
  solubility (mole fraction): 0.0138
In water, 303.1 K
  solubility (mole fraction): 0.0171
In water, 308.2 K
  solubility (mole fraction): 0.0218
In water, 313 K
  solubility (mole fraction): 0.0284
In water, 318 K
  solubility (mole fraction): 0.037
In water, 323 K
  solubility (mole fraction): 0.0477

## O=S(=O)([N-]Cl)c1ccccc1.[Na+]
In ethanol, 278 K
  solubility (mole fraction): 0.0164
In ethanol, 283 K
  solubility (mole fraction): 0.0193
In ethanol, 288 K
  solubility (mole fraction): 0.0224
In ethanol, 293 K
  solubility (mole fraction): 0.0264
In ethanol, 298 K
  solubility (mole fraction): 0.031
In ethanol, 303.2 K
  solubility (mole fraction): 0.0364
In ethanol, 308 K
  solubility (mole fraction): 0.0422
In ethanol, 313 K
  solubility (mole fraction): 0.0486
In ethanol, 318 K
  solubility (mole fraction): 0.0561
In ethanol, 323 K
  solubility (mole fraction): 0.066
In n-propanol, 278 K
  solubility (mole fraction): 0.00195
In n-propanol, 283 K
  solubility (mole fraction): 0.00348
In n-propanol, 288 K
  solubility (mole fraction): 0.00536
In n-propanol, 293 K
  solubility (mole fraction): 0.00778
In n-propanol, 298 K
  solubility (mole fraction): 0.0106
In n-propanol, 303.1 K
  solubility (mole fraction): 0.0142
In n-propanol, 308.2 K
  solubility (mole fraction): 0.0188
In n-propanol, 313 K
  solubility (mole fraction): 0.0245
In n-propanol, 318 K
  solubility (mole fraction): 0.0307
In n-propanol, 323 K
  solubility (mole fraction): 0.0378
In sec-butanol, 278 K
  solubility (mole fraction): 0.00185
In sec-butanol, 283 K
  solubility (mole fraction): 0.00228
In sec-butanol, 288 K
  solubility (mole fraction): 0.00287
In sec-butanol, 293 K
  solubility (mole fraction): 0.00383
In sec-butanol, 298.4 K
  solubility (mole fraction): 0.00481
In sec-butanol, 303.2 K
  solubility (mole fraction): 0.00585
In sec-butanol, 308 K
  solubility (mole fraction): 0.00706
In sec-butanol, 313 K
  solubility (mole fraction): 0.0091
In sec-butanol, 318 K
  solubility (mole fraction): 0.0117
In sec-butanol, 323 K
  solubility (mole fraction): 0.015
In water, 278 K
  solubility (mole fraction): 0.0074
In water, 283 K
  solubility (mole fraction): 0.00829
In water, 288 K
  solubility (mole fraction): 0.0102
In water, 293 K
  solubility (mole fraction): 0.0127
In water, 298 K
  solubility (mole fraction): 0.0158
In water, 303.1 K
  solubility (mole fraction): 0.0192
In water, 308.2 K
  solubility (mole fraction): 0.0241
In water, 313 K
  solubility (mole fraction): 0.0316
In water, 318 K
  solubility (mole fraction): 0.0421
In water, 323 K
  solubility (mole fraction): 0.0554

Reference: BigSolDB 2.1
